Results: publication PMC12598866, “A Comparative Study of Virucidal and Virustatic Multivalent Entry Inhibitors” (The Journal of Physical Chemistry. B, 2025)
Like-named read-outs stand apart in the source and are kept apart here.

How the values were obtained:
HSV-1 = HSV-1 inhibition assay (plaque reduction on Vero cells); type: cell-based, herpes simplex virus type 1; conditions: Human alphaherpesvirus 1, dose–response
Procedure: The inhibitory effect of compounds on HSV-1 was evaluated by plaque reduction assay. Vero cells were plated 24 h before the experiment in 24-well plates at a density of 10^5 cells/well. Serial dilutions of compounds in DMEM medium (2% FBS, 1% P/S) were prepared, followed by the addition of aliquots of HSV-1 such that the final titer of the virus is […] (with MOI = 0.0005). Compounds/virus mixtures were incubated at 37 °C for 1 h and added to the cells (250 μL/well). Followed by incubation at 37 °C for 1 h, the viral inoculum was removed. The cells were overlaid with DMEM medium containing 1.2% methylcellulose, 2% FBS, and 1% P/S. After 3 days of incubation at 37 °C, 5% CO2, the cells were fixed and stained with 0.1% crystal violet in 20% ethanol, and plaques were counted. Each group of experiments in the inhibition assay was performed in triplicate. The concentration producing a 50% reduction in plaque formation was determined using the Prism 10 software (GraphPad Software, USA) by comparing compound-treated and untreated cells. Infectivity was calculated as the number of plaques in compound-treated cells/number of plaques in untreated cells × 100%.

H1N1N09 = experiment: Influenza inhibition assay (ICC on MDCK cells); type: cell-based, Influenza A/Netherlands/602/2009 (H1N1); conditions: Influenza A virus, dose–response
H1N1 clinical = experiment: Influenza inhibition assay (ICC on MDCK cells); type: cell-based; conditions: Influenza A virus, dose–response
H3N2 [1] = experiment: Influenza inhibition assay (ICC on MDCK cells, pretreatment); type: cell-based; conditions: Influenza A virus
Flu B = experiment: Influenza inhibition assay (ICC on MDCK cells); type: cell-based; conditions: dose–response
HSV-2 [2] = experiment: HSV-2 virucidal assay; type: cell-based, herpes simplex virus type 2; conditions: for inhibition mechanism against HSV-2 (in words): virucidal tests
HSV-2 [3] = experiment: Growth of viruses in the presence of compounds (posttreatment), HSV-2; type: cell-based, herpes simplex virus type 2; conditions: Human alphaherpesvirus 2, Vero, posttreatment condition, Vero cells
H3N2 [4] = experiment: microbe, parasite or virus in culture; type: cell-based; conditions: Influenza A virus, posttreatment condition, MDCK cells
[5] = tested on: NO production in RAW 264.7 cells; experiment: NO production in LPS-stimulated macrophages; type: cell-based; conditions: Mus musculus, RAW264.7; RAW 264.7 pretreated 2 h with MEIs, then LPS 1 μg/mL for 24 h
Procedure: To evaluate the anti-inflammatory potential of MEIs, we investigated their ability to reduce the level of NO production in macrophages. RAW 264.7 cells were pretreated with the different concentrations of MEIs for 2 h, followed by stimulation with lipopolysaccharide (LPS) (1 μg/mL) for 24 h to induce inflammation. […] However, cotreatment with MEIs led to a reduction in NO levels, confirming their anti-inflammatory effect.

BSA = biological target: T1, BSA (Bos taurus, UniProt P02769); experiment: Isothermal titration calorimetry with BSA; type: binding, bovine; conditions: ITC
T1 construct: purchased Sigma-Aldrich
T1 sequence (P02769 25-607): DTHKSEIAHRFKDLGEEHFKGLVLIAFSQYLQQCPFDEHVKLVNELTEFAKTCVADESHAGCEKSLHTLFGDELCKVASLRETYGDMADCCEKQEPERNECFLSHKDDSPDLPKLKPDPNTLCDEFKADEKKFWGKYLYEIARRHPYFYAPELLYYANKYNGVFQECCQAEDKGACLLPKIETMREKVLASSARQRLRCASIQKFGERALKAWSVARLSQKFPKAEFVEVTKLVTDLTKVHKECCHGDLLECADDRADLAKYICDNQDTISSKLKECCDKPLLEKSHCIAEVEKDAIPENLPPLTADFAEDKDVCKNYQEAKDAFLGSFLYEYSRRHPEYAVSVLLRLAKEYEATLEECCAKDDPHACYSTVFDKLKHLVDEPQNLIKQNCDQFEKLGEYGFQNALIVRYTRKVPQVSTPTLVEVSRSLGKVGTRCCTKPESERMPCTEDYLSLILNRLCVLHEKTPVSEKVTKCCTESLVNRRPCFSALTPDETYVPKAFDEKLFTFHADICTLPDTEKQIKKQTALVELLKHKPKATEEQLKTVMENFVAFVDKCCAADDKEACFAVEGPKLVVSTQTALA

[6] = biological target: glycoprotein D (gD) of HSV; experiment: Isothermal titration calorimetry with glycoprotein D; type: binding; conditions: ITC, 25°C
Procedure: Isothermal titration calorimetry (ITC) experiments were conducted using ITC200 instruments (GE Healthcare, USA) equipped with a 200 μL sample cell and a 40 μL syringe. Thirteen injections were applied. The first data point was excluded. BSA protein and viral protein concentrations in the cell were approximately 50 μM and 1 mg/mL, respectively, and ligand concentrations in the syringe were roughly 2 mM. They were centrifuged at 2000g for 2 min to remove bubbles. The titration was performed at 25 or 37 °C, with data analyzed using MicroCal PEAQ ITC software. Baseline correction was applied, and Nitpic/Sedphat was used for automated integration to ensure precise binding parameter determination.

[7] = CMC assay (conductivity method); type: physicochemical; conditions: in water
Procedure: The CMC of antiviral compounds was measured by the conductivity method. Antiviral compounds were diluted into water at different concentrations, and the conductivity (μS/cm) was measured at each concentration with a conductivity meter (Mettler Toledo, Switzerland). The CMC was identified as the point on the conductivity-concentration plot where the slope changed.

[8] = Partition coefficient octanol/water (UV-vis); type: physicochemical
Procedure: UV–vis spectroscopy was employed first to determine the correct dilution of all compounds. The seven compounds in this study were B3C11SO4, B3C11SO3, B3C6SO3, B3C6SO4, C4C11SO4, C4C11SO3, and C4C3SO3. The protocol is the same for all the compounds: in the beginning, all compounds were dissolved in water at a concentration of 1 mg/mL. The solution was put into a quartz cuvette and then into the UV–vis spectrometer, where the absorbance from wavelengths 600 to 190 nm was investigated. All of the samples presented a peak in absorbance around 200 nm. The samples were diluted further until the absorbance peak reached values near 0.90.
A biphasic solution composed of 1.5 mL of a water solution of antiviral +1.5 mL of octanol was thoroughly mixed for 60 min. After the mixing, the two phases were separated by centrifugation for 1 min using a benchtop centrifuge at 5000 rpm. The water phase saturated in octanol and the octanol phase saturated with water were extracted and characterized by UV–vis spectrometry.
The partition coefficient (log P) was then calculated using formula : logP=log(Absorbanceofoctanolphase/Absorbanceofwaterphase) 1

[9] = Cytotoxicity assay for MDCK (MTT); type: cell-based; conditions: dog, MDCK cells
Procedure: MTT assay was used to evaluate the cytotoxicity on MDCK cells. 10^4 cells per well were seeded in a 96-well plate 1 day before the assay. A dose range of each drug (from 4.11 μM to 1000 μM) was added to the cells in serum-free medium for MDCK cells. The antivirals were incubated on the cells for 24 h at 37 °C. After incubation, the cells were washed, and MTT reagent (Promega) was added to the cells for 4 h at 37 °C according to the manufacturer’s instructions. The cells were then washed, and 50 μL of DMSO was added to free the reagent. Subsequently, the absorbance was read at 579 nm. Percentages of viability were calculated by comparing the absorbance in treated wells and untreated conditions.

HSV-2 [10] = experiment: HSV-2 inhibition assay (plaque reduction on Vero cells, pretreatment); type: cell-based, herpes simplex virus type 2; conditions: Human alphaherpesvirus 2, Vero, pretreatment condition
[11] = dose–response, read-out: IC50 H3N2
[12] = pretreatment condition, read-out: pretreatment IC50, H3N2
[13] = H2O, 25 °C (Table 5), read-out: K d (BSA)

SMILES | IC50 (HSV-1) [µM] | IC50 (H1N1N09) [µM] | IC50 (H1N1 clinical) [µM] | IC50 (H3N2 [1]; [11]) [µM] | IC50 (H3N2 [1]; [12]) [µM] | IC50 (Flu B) [µM] | inhibition mechanism against HSV-2 (in words) (HSV-2 [2]) | IC50 (HSV-2 [3]) [µM] | IC50 (H3N2 [4]) [µM] | IC50 [5] [µM] | ΔG (BSA) (BSA; H2O, 25 °C (Table 5)) | ΔH (BSA) (BSA; H2O, 25 °C (Table 5)) | –ΔTS (BSA) (BSA; H2O, 25 °C (Table 5)) | Kd (BSA; [13]) [µM] | -∆TS (BSA) (BSA; PBS, 25 °C (Table S3)) [kcal/mol] | Kd (BSA; PBS, 25 °C (Table S3)) [µM] | N (BSA) (BSA; PBS, 25 °C (Table S3)) | ∆G (BSA) (BSA; PBS, 25 °C (Table S3)) [kcal/mol] | ∆H (BSA) (BSA; PBS, 25 °C (Table S3)) [kcal/mol] | -∆TS (BSA) (BSA; PBS, 37 °C (Table S3)) [kcal/mol] | further results
O=S(=O)(O)CCCCCCCCCCCSCc1cc2c(cc1CSCCCCCCCCCCCS(=O)(=O)O)OCCOCCOc1cc(CSCCCCCCCCCCCS(=O)(=O)O)c(CSCCCCCCCCCCCS(=O)(=O)O)cc1OCCOCCO2 [C4C11SO3] | 118 ± 10.4 | 15.8 ± 3.1 | 10.4 ± 3.34 | 6.4 ± 1.03 | 40.9 ± 1.19 | 7.7 ± 3.75 | virucidal | 12.3 ± 0.76 | 52.6 ± 0.5 | 173.8 ± 1.52 | –6.81 kcal/mol | –0.934 kcal/mol | –5.88 kcal/mol | 10.3 | -2.06 | 124 | 10 | -5.33 | -1.58 | -7.9 | Virucidal/Virustatic, HSV-2 (HSV-2 [2]; concentration 126.3 uM): Virucidal; Virucidal/Virustatic, HSV-2 (HSV-2 [2]; concentration 237.16 uM): Virucidal; Virucidal/Virustatic, HSV-2 (HSV-2 [2]; concentration 304 uM): Virucidal; N (binding sites, BSA) (BSA; H2O, 25 °C (Table 5)): 2.63; Kd (BSA; PBS, 37 °C (Table S3)): 1.64 µM; N (BSA) (BSA; PBS, 37 °C (Table S3)): 2.6; ∆G (BSA) (BSA; PBS, 37 °C (Table S3)): -8.21 kcal/mol; ∆H (BSA) (BSA; PBS, 37 °C (Table S3)): -0.315 kcal/mol; Kd [6]: 83.5 µM; CMC [7]: 237 ± 17.1 µM; logP [8]: -2.25; CC50 at 24 h [9]: 202.3 ± 0.76 µM; IC50 (HSV-2 [10]): 9.8 ± 1.5 µM
O=S(=O)(O)OCCCCCCCCCCCSCc1cc(CSCCCCCCCCCCCOS(=O)(=O)O)cc(CSCCCCCCCCCCCOS(=O)(=O)O)c1 [B3C11SO4] | 43 ± 1.14 | 0.9 ± 0.05 | 0.7 ± 0.04 | 0.6 ± 0.12 | 0.6 ± 0.12 | 0.4 ± 0.04 | virucidal | 18 ± 1.13 | 8.6 | 152.8 ± 1.27 | –7.71 kcal/mol | –5.4 kcal/mol | –2.31 kcal/mol | 2.23 | -9.86 | 3.8 | 3.21 | -7.46 | 2.46 | -9.8 | Kd (BSA; PBS, 37 °C (Table S3)): 1.37 µM; N (BSA) (BSA; PBS, 37 °C (Table S3)): 2.58; ∆G (BSA) (BSA; PBS, 37 °C (Table S3)): -8.32 kcal/mol; ∆H (BSA) (BSA; PBS, 37 °C (Table S3)): 1.48 kcal/mol; Kd [6]: 28.2 µM; CMC [7]: 556 ± 35.1 µM; logP [8]: -2.2; CC50 at 24 h [9]: 12.2 ± 0.94 µM; IC50 (HSV-2 [10]): 43 ± 8.3 µM
